# Marks after values point to notes of the source that are not given here.
# How the values were obtained:
# [1] = Liposome disruption (OD600), cancer membrane model; settings: OD600 and visual flocculates
# Experimental: Liposomes were prepared by extrusion techniques according to previous methods. Briefly, all liposomes were prepared in 2×concentration (5 mM). Healthy and cancer liposomal mimicking membranes were prepared with 72:23:[…] phosphatidylcholine (POPC):phosphatidylethanolamine (DOPE):phosphatidylserine (POPS) lipids, respectively. The lipids dissolved in chloroform were mixed in proper molar proportions before being evaporated under a stream of argon. The lipid film was then dried completely by lyophilization overnight. […] The extruded liposomes were then dialyzed in 3500 MWCO dialysis cassettes against water. Parallel optical density experiments were conducted measuring the absorbance at 600 nm (OD600) to track the kinetics and specificity of membrane disruption. Measurements were taken every 30 seconds for the first 10 min., followed by measurements every minute until 15 min.
# P. aeruginosa = settings: 24 hours, Gram Negative
# [2] = test system: polymicrobial panel (six bacterial lines); assay: Antimicrobial activity against polymicrobial panel; format: cell-based
# OVCAR-3 cells [3] = assay: TMRE-staining flow cytometry (mitochondrial transmembrane potential); format: cell-based, human; settings: 48 hour incubation, varying concentrations
# Experimental: (5 μM). Cells were incubated for 30 min. with 200 nM TMRE, washed twice with PBS, and analyzed for fluorescence by flow cytometry on a BD […] (BD Biosciences, Franklin Lakes, N.J.).
# [4] = test system: non-cancerous cell lines HUVEC and NL20; assay: MTT cytotoxicity, non-cancerous control cell lines; format: cell-based, human
# Experimental: All cells were cultured using standard culture conditions at 37° C., 5% CO2, and 95% humidity. A549 (CCL-185), OVCAR-3 (HTB-161), T24 (HTB-4), and NCI/ADR-RES were cultured in RPMI-1640 supplemented with 10% v/v fetal bovine serum (FBS), 2 mM L-glutamine (L-Gln), 10,000 units penicillin/mL, 10 mg/mL streptomycin, and 25 μg/mL amphotericin B. HUVEC (PCS-100-010) cells were cultured in Vascular Cell Basal Media (PCS-100-030) supplemented with an Endothelial Cell Growth Kit-VEGF (PCS-100-041) and 10 μg/mL gentamycin in culture flasks coated with 0.1% gelatin by incubating at 37° C. for 15 min. NL20 (CRL-2503) cells were cultured in Ham's F12 supplemented with 1.5 g/L sodium bicarbonate, 2.7 g/L glucose, 2.0 mM L-glutamine, 0.1 mM nonessential amino acids, 0.005 mg/ml insulin, 10 ng/ml epidermal growth factor, 0.001 mg/ml transferrin, 500 ng/ml hydrocortisone and 4% fetal bovine serum, as advised by American Type Culture Collection (ATCC).
# Viability was calculated by comparing to an untreated control.
# All experiments were performed with n>6.
# E. coli = settings: 24 hours, Gram Negative
# [5] = test system: OVCAR-3 ovarian carcinoma cells
# M. tuberculosis = settings: 24 hours, Mycobacteria
# OVCAR-3 cells [6] = settings: read-out: IC50, nuclei-counting assay; OVCAR-3, Hoechst nuclei counting
# [7] = test system: patient-derived tumor cell spheroids (EOC15, 17, 19); assay: Ex vivo 3D tumor spheroid culture; format: cell-based, human; settings: 2 μM cisplatin or 4 μM MAD1 alone, 48 hours
# Experimental: EOC patient-derived cells were cultured in 1:1 MCDB-105: M199 supplemented with 10% FBS and 1% penicillin-streptomycin. EOC patient-derived cells were provided by Dr. Katherine M. Aird under an Institutional Review Board-approved protocol. EOC patient-derived cells were collected from patient ascites fluid after paracentesis procedures. Cells were routinely tested for mycoplasma as previously described. […] Spheroid length and width was calculated using ImageJ. Spheroid volume was calculated using the following equation […] Statistical Methods […] IC50 values are reported as mean values±standard deviation. […] Pore size frequency distribution was completed by ImageJ FIJI on 4 independent cells and n=30 pores from SEM images. […] Individual UV-Vis and CD spectra, as well as fluorescent confocal and TEM micrographs, shown are representative plots from three individual experiments. CD data is with a variance in ellipticity of 0.2 millidegrees at each wavelength. Relative fluorescence data calculated from fluorescent confocal images represents the average of 10 independent measurements±standard deviation. For spheroid volume analysis, a Kruskal-Wallis test and Dunn's multiple comparisons test was performed using GraphPad Prism 8.
# MR S. aureus = settings: 24 hours, Gram Positive
# [8] = test system: human umbilical vein endothelial cells (HUVEC); settings: read-out: Healthy (IC50, μM) HUVEC; 48 hours treatment, MTT
# [9] = test system: human lung epithelium (NL20); settings: read-out: Healthy (IC50, μM) NL20; 48 hours treatment, MTT
# [10] = test system: cleaved caspase 3 in OVCAR-3 cells; assay: Western blot of cleaved caspase 3; format: cell-based, human; settings: 1× and 2× IC50; activation at 48 hours
# Experimental: For western blots, OVCAR-3 cells were first seeded at 2.5×10^5 cells/well in a 6 well plate and allowed to adhere overnight. Cells were then treated in 5% FBS media with 1×IC50 and 2×IC50, with untreated controls of media alone. Following 2 or 48 hours of treatment, the whole-cell protein lysates were prepared in RIPA buffer (50 mM Tris.NaOH at pH 7.4, 150 mM NaCl, 1% IGEPAL-CA630 [octylphenoxy poly(ethyleneoxy)ethanol], 0.5% sodium deoxycholate, 0.1% SDS, 2 mM EDTA, protease/phosphatase inhibitors) by first scraping the bottom of the well and subsequently briefly sonicated. The lysates were centrifuged to clear cellular debris, separated by 12% SDS-PAGE, and transferred to a 0.2 μm Nitrocellulose Membrane using the Bio-Rad Trans-Blot Turbo transfer machine (Bio-Rad, Hercules, Calif., USA) according to the manufacturer's protocols. The blot was incubated in 5% Immunoanalytical Grade Non-fat Dry Milk for 1 hour, followed by incubation with antibodies against cleaved caspase-3 (1:1000) or actin (1:1000) at 4° C. for 16 hours. The blots were then incubated with 1:2000 dilution in 1×BSA of anti-mouse or anti-rabbit antibodies for 1 hour before washing with TBST three times for 15 min. and developing using Pierce ECL system according to the manufacturer's protocol.
substance,measurement,setting,value
H-KRWHWWRRHWVVW-NH2 [MAD1],disruption/lysis of cancer membrane liposomes,[1],significant membrane destabilization and subsequent lysis
same,MIC (μM) P. aeruginosa,P. aeruginosa,50^a μM
same,antimicrobial activity against polymicrobial panel,[2],bactericidal activity
same,mitochondrial integrity (TMRE fluorescence),OVCAR-3 cells [3],generally unchanged
same,toxicity towards non-cancerous control cell lines,[4],well tolerated
same,MIC (μM) E. coli,E. coli,25 µM
same,Therapeutic Index OVCAR-3,[5]; IC50-HUVEC/IC50-OVCAR-3,7
same,IC50,"[5]; read-out: Cancerous (IC50, μM) OVCAR-3, 48 hours treatment, MTT",14.2 µM
same,MIC (μM) M. tuberculosis,M. tuberculosis,2.5 µM
same,IC50,OVCAR-3 cells [6],3.3 µM
same,"spheroid size, single agent",[7],minimal reduction in size
same,MIC (μM) MR S. aureus,MR S. aureus,>80^a μM
same,IC50,[8],> 100 µM
same,IC50,[9],76.9 µM
same,cleaved caspase 3 (western blot),[10],presence of cleaved caspase 3

# — US11571454B2, “Anticancer peptides that synergistically enhance chemotherapeutic potency” (The Penn State Research Foundation, priority 2017, dated 2023)
